Measured values taken from patent US6596512B1 (American Cyanamid Company, priority 1997, dated 2003).

How the values were obtained:
[1] = molecular target: T1, CeDAT1 (Caenorhabditis elegans, UniProt Q03614); type: cell-based, C. elegans; conditions: radiolabeled substrates each at 50 nm, pCeDAT1
T1 sequence (Q03614 20-615): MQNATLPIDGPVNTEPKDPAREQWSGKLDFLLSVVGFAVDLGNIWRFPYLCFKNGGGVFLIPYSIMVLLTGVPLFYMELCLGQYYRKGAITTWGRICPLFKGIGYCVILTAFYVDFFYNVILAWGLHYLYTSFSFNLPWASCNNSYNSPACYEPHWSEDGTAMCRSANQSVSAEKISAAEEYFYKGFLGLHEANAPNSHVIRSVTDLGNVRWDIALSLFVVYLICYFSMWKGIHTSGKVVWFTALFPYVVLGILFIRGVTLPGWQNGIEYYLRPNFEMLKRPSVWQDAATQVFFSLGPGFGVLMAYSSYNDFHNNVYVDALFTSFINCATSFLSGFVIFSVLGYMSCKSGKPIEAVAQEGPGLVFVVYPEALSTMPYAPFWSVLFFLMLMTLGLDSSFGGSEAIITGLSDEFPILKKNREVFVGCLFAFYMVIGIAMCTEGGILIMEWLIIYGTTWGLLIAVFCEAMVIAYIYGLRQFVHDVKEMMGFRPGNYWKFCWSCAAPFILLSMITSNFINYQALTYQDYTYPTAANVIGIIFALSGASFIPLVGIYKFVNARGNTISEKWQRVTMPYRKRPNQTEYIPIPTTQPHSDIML

[2] = tested on: CeDAT2 (Caenorhabditis elegans); type: cell-based, C. elegans; conditions: radiolabeled substrates each at 50 nm, pCeDAT2
Chain of CeDAT2 (Caenorhabditis elegans) (Q03614 whole entry): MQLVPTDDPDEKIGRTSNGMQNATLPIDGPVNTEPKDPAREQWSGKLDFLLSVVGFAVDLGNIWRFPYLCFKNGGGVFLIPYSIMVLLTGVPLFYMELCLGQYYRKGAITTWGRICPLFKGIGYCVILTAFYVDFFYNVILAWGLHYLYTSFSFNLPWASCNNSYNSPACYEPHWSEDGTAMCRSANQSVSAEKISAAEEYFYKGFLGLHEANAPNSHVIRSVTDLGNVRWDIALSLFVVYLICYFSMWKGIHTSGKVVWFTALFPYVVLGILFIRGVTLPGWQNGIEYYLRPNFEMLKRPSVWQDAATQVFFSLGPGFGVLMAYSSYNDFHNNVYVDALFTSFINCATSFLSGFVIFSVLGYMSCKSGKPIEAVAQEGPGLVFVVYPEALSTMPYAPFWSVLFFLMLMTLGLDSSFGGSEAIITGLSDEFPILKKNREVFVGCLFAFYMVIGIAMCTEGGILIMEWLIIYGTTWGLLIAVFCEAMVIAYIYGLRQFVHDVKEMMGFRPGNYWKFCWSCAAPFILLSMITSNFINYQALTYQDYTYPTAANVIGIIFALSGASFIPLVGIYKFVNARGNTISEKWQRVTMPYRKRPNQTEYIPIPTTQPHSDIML

[3] = molecular target: T1, CeDAT1; experiment: cell-based; set-up: species or system C. elegans
[4] = molecular target: T1, CeDAT1; experiment: Saturation kinetics of catecholamine transport in pCeDAT1 transfected HeLa cells; type: cell-based, C. elegans; conditions: radiolabeled substrate
[5] = substrate: NC[C@H](O)c1ccc(O)c(O)c1; experiment: cells, lysate or membranes; conditions: 37.0 °C

NCCc1c[nH]c2ccc(O)cc12 [5HT, Serotonin]
Transport of radiolabeled substrate [1]: little or no transport
Transport of radiolabeled substrate [2]: transported only at very low levels

NCCc1ccc(O)c(O)c1 [DA, Dopamine]
Ki [3]: 146 nM
Potency as inhibitor of transport relative to L-NE ([3]; pCeDAT1, HeLa cells, DA versus L-NE): ~10 fold
Vmax of transport [4]: 0.6 pmol/10^6 cells/min
Extent of transport relative to NE [1]: ~2 fold

CNC[C@H](O)c1ccc(O)c(O)c1 [Epi]
Transport of radiolabeled substrate [1]: little or no transport
Transport of radiolabeled substrate [2]: transported only at very low levels

Fc1ccc(C(OCCN2CCN(CCCc3ccccc3)CC2)c2ccc(F)cc2)cc1 [GBR12909]
Ki [3]: 70 nM

NC[C@H](O)c1ccc(O)c(O)c1 [NE, Norepinephrine]
Vmax of transport [4]: 0.46 pmol/10^6 cells/min

NCCc1ccc(O)cc1 [Tyramine]
Ki [3]: 827 nM

COC(=O)[C@H]1[C@@H](OC(=O)c2ccccc2)C[C@@H]2CC[C@H]1N2C [cocaine]
Ki [3]: 3500 nM

OC1(c2ccc(Cl)cc2)c2ccccc2C2=NCCN21 (stereo not drawn) [mazindol]
Ki [3]: 8 nM

CNCCC(Oc1ccccc1OC)c1ccccc1 (stereo not drawn) [nisoxetine]
Ki [3]: 3 nM

B1: CeDAT1 (Caenorhabditis elegans) (protein)
chain: T1 sequence (Q03614 20-615)
Km [5]: 4.1 µM
